Experimental data published in US11541065B2, “Compositions and methods for treating brain injury” (UNM RAINFOREST INNOVATIONS, priority 2018, dated 2023).

Legend:
[1] = tested on: ERK MAPK; assay: ERK MAPK phosphorylation in WT and GluN2A-KO mouse neuron cultures (immunoblot); assay type: cell-based, mice; conditions: L-homocysteine 50 μM
Excerpt: Primary cortical neuronal cultures were established from embryos obtained from pregnant Sprague Dawley female rats (16-17 day gestation) as previously described (Podder and Paul, 2009, J Neurochem 110:1095-1106; Poddar and Paul, 2013, J Neurochem 124: 558-570). Primary cortical neuronal cultures were also developed from pregnant wildtype or GluN2A-knockout mice (15-16 day gestation) using similar protocols. The cells were maintained in culture for 12-14 days prior to treatment with homocysteine. L-homocysteine (200 mM stock) was prepared by alkali hydrolysis of L-homocysteine thiolactone hydrochloride followed by neutralization with 2N HCL and maintained in 0.02 mM N-Tris(hydroxymethyl)methyl-2-aminoethanesulfonicd acid (TES) buffer pH 7.4 (Poddar et al., 2001, Circulation 103:2717-2723). For receptor stimulation neurons were treated with freshly prepared 50 μM of L-homocysteine in Hank's balanced salt solution (Podder and Paul, 2009, J Neurochem 110:1095-1106; Poddar and Paul, 2013, J Neurochem 124: 558-570) containing 50 μM of glycine (Lipton et al., 1997, Proc Natl Acad Sci USA 94:5923-5928). In a subset of culture plates, pharmacological inhibitors (NVP-AAM007) were added […] prior to homocysteine addition and maintained during homocysteine treatment. Cells were processed for immunoblotting or Hoechst DNA staining.
Equal protein from total cell lysates obtained from rat and mice neuronal cultures were resolved in 7.5% SDS-PAGE, and subjected to immunoblotting procedure as described earlier (Podder and Paul, 2009, J Neurochem 110:1095-1106). Blots were analyzed with antibodies as described in each experiment. All primary antibodies (anti-pERK, anti-ERK) and secondary-horse radish peroxidase conjugated antibody concentrations were used according to recommendations provided by the manufacturer. Signals from immune complexes in the blots were developed using West Pico supersignal chemiluminescence reagents and then captured on X-ray films. Densitometric analysis of the images was performed using the Image J software.
Embryos obtained from pregnant Sprague Dawley rats (16-17-day gestation) or wild type (WT) and GluN2A KO mice (15-16-day gestation) were used to establish primary cortical neuronal cultures as previously described (Poddar and Paul, 2009, J Neurochem 110:1095-1106; Poddar and Paul, 2013, J Neurochem 124:558-570; Poddar et al., 2017, J Neurochem 142:560-573). Neurons were grown on either (a) 35-mm culture dishes (MatTek Corp., Ashland, Mass.) coated overnight with poly-D-lysine (50 μg/ml) and laminin (10 μg/ml) for Ca^2+ imaging studies, (b) poly-D-lysine-coated 60 mm dishes (Corning BIOCOAT, Corning Inc., Corning, N.Y.) for biochemical studies, or (c) poly-D-lysine-coated 4-well culture slides (Corning BIOCOAT, Corning Inc., Corning, N.Y.) for cell death assay. Neurons were maintained in culture for 12-13 days before experiment. The cells were treated with freshly prepared L-homocysteine (50 μM) in Hank's balanced salt solution containing 50 μM of glycine (Lipton et al., 1997, Proceedings of the National Academy of Sciences of the United States of America 94:5923-5928; Poddar and Paul, 2009, J Neurochem 110:1095-1106; Poddar and Paul, 2013, J Neurochem 124:558-570; Poddar et al., 2017, J Neurochem 142:560-573) for the specified time periods. In a parallel series of experiments, cells were treated with glutamate (50 μM) for the specified time periods. Cells were then processed for live cell imaging, immunoblotting or cell death assay. […]

[2] = tested on: rat cortical neuron cultures; assay: OGD / re-oxygenation cell death, Hoechst DNA staining; assay type: cell-based; conditions: OGD two hours in the presence of homocysteine 50 μM, re-oxygenation 22 hours, vs OGD alone
Method: At specified time periods (one hour, two hours, and three hours) during OGD alone or OGD in the presence of L-Hcy (50 μM), cells were removed from the chamber and lysed for immunoblot analysis. Some cultures were treated with L-Hcy (three hours) during the OGD insult in the presence or absence of NVP-AAM077 (30 nM; 3 h). […] Cells were then subjected to staining with Hoechst 33342 dye for 15 minutes, washed extensively with PBS, and analyzed using fluorescent microscopy to assess nuclear damage. To quantitatively assess the percentage of pyknotic nuclei, a total of 1000 cells were counted for each set of experiments (Poddar et al., 2010, J Neurochem 115, 1350-1362).

[3] = tested on: MCP-1; assay: MCP-1 level in ischemic brain (ELISA); assay type: in vivo, Wistar rats; conditions: HHcy rats, MCAO 60 minutes, six hours of reperfusion, NVP-AAM077 1.2 mg/kg intravenous at onset of insult
Method: Wistar rats were made hyperhomocysteinemic using osmotic pump containing L-homocysteine. Animals were hyperhomocysteinemic (19-23 μM) within three days of pump implantation. Ischemic stroke was induced by MCAO for 60 minutes followed by reperfusion for six hours. Tissue punches from the ipsilateral striatum and cortex were lysed in ice-cold Phosphate buffered saline (pH 7.4) containing phosphatase inhibitor, sonicated three times in five-second bursts and placed on ice (two minutes) between each burst of sonication. The lysed cell suspensions were centrifuged at 10,000 rpm (10 minutes) and the supernatant was collected in another tube. Equal amounts of protein from the supernatant were processed for PGE2 and MCP-1 levels using respective ELISA kit.

SMILES	ERK MAPK phosphorylation ([1]; neurons from GluN2A KO mice, 30 or 60 minutes)	ERK MAPK phosphorylation ([1]; neurons from GluN2A-KO mice, four hours)	ERK MAPK phosphorylation ([1]; neurons from WT mice, 30 or 60 minutes)	ERK MAPK phosphorylation ([1]; neurons from WT mice, four hours)	OGD-induced cell death [2]	MCP-1 level in ischemic hemisphere (cortex and striatum) [3]
N[C@@H](CCS)C(=O)O [L-homocysteine]	fails to induce ERK MAPK phosphorylation	remains unchanged	sustained increase in ERK MAPK phosphorylation	significant increase in ERK MAPK phosphorylation	increases by two-fold	
C[C@H](NC(c1cccc2[nH]c(=O)c(=O)[nH]c12)P(=O)(O)O)c1ccc(Br)cc1 (stereo partly drawn) [NVP-AAM077, ({[(1S)-1-(4-bromophenyl)ethyl]amino}-(2,3-dioxo-1,4-dihydroquinoxalin-5-yl)methyl)phosphonic acid]						attenuated the increase in the level of both PGE2 and MCP-1
